Test results as given in article PMC9721025, “Pharmacokinetic study of the main components of Tanreqing capsules and Tanreqing injections in beagles by liquid chromatography–tandem mass spectrometry” (Chinese Medicine, 2022).
Read-outs that look alike come from different tables or passages of the source.

How the values were obtained:
[1] = Pharmacokinetics in beagles, single-dose regimen of TRQI (i.v.) or TRQC (oral), plasma LC-MS/MS; type: in vivo, beagle; conditions: for AUC(0-t) / Cmax / Tmax / half-life: beagle, dog, plasma; for AUC(0-t): read-out: AUC0–24 h; for Cmax / Tmax / half-life: mean of six beagles
Summary of the method: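 Plasma parameters came from non-compartmental analysis of LC–MS/MS data after methanol/acetonitrile precipitation. Three male and three female beagles each received single doses of both formulations in a two-period crossover, 7 days apart: 0.5 mL/kg TRQI intravenously and 0.09 g/kg TRQC by mouth, with 14 blood samples over 24 h.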

[2] = Pharmacokinetics in beagles, multiple-dose regimen (once per day for 7 days) of TRQI or TRQC, plasma LC-MS/MS; type: in vivo; conditions: beagle, dog
Summary of the method: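 Six beagles dosed once daily for 7 days with TRQI (0.5 mL/kg injection) or TRQC (0.09 g/kg), crossover after washout. Plasma sampled 0–24 h after seventh dose, methanol/acetonitrile-precipitated, measured by LC–MS/MS. Steady-state parameters by non-compartmental analysis.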

[3] = Stability of analytes in dog plasma (QC samples); type: in vitro ADME
Summary of the method: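 QC samples in dog plasma at three concentration levels, three replicates each, tested for short-term (6 h room temperature), long-term (−80 °C, 30 days) and freeze–thaw (three cycles, −80 °C to room temperature) stability. Working solutions prepared in methanol/water 10:90.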

[4] = Tanreqing injection, cited from earlier work
[5] = both sexes, iv, single i.v. dose of TRQI 0.5 mL/kg
[6] = both sexes, single oral dose of TRQC 0.09 g/kg
[7] = both sexes, iv, TRQI 0.5 mL/kg once per day for 7 days, mean
[8] = both sexes, po, TRQC 0.09 g/kg once per day for 7 days, mean
[9] = n = 3, high QC: nominal 200 ng/mL baicalin, 1000 ursodeoxycholic acid, 100 chenodeoxycholic acid and chlorogenic acid
[10] = n = 3, low QC: nominal 4 ng/mL baicalin, 20 ursodeoxycholic acid, 2 chenodeoxycholic acid and chlorogenic acid
[11] = n = 3, middle QC: nominal 20 ng/mL baicalin, 100 ursodeoxycholic acid, 10 chenodeoxycholic acid and chlorogenic acid

time at which oral absorption reached a peak ([1]; TRQC, oral, dogs): ~5 h
AUC(0-t) ([1]; both sexes, iv, 0.5 mL/kg, single TRQI 0.5 mL/kg, Mean): 4080 ng·h/mL
Cmax [1, 5]: 2750 ng/mL
Tmax [1, 5]: 0.08 h
half-life [1, 5]: 27.7 h
AUC(0-t) ([1]; both sexes, po, 0.09 g/kg, single TRQCs 0.09 g/kg, Mean): 4400 ng·h/mL
Cmax [1, 6]: 1330 ng/mL
Tmax [1, 6]: 5.94 h
half-life [1, 6]: 10.4 h
AUC(0-t) ([1]; female, iv, 0.5 mL/kg, single TRQI 0.5 mL/kg, beagle No 4): 898 ng·h/mL
AUC(0-t) ([1]; female, iv, 0.5 mL/kg, single TRQI 0.5 mL/kg, beagle No 5): 1160 ng·h/mL
AUC(0-t) ([1]; female, iv, 0.5 mL/kg, single TRQI 0.5 mL/kg, beagle No 6): 992 ng·h/mL
AUC(0-t) ([1]; female, po, 0.09 g/kg, single TRQCs 0.09 g/kg, beagle No 4): 11300 ng·h/mL
AUC(0-t) ([1]; female, po, 0.09 g/kg, single TRQCs 0.09 g/kg, beagle No 5): 1880 ng·h/mL
AUC(0-t) ([1]; female, po, 0.09 g/kg, single TRQCs 0.09 g/kg, beagle No 6): 3700 ng·h/mL
AUC(0-t) ([1]; male, iv, 0.5 mL/kg, single TRQI 0.5 mL/kg, beagle No 1): 18200 ng·h/mL
AUC(0-t) ([1]; male, iv, 0.5 mL/kg, single TRQI 0.5 mL/kg, beagle No 2): 1100 ng·h/mL
AUC(0-t) ([1]; male, iv, 0.5 mL/kg, single TRQI 0.5 mL/kg, beagle No 3): 2120 ng·h/mL
AUC(0-t) ([1]; male, po, 0.09 g/kg, single TRQCs 0.09 g/kg, beagle No 1): 1700 ng·h/mL
AUC(0-t) ([1]; male, po, 0.09 g/kg, single TRQCs 0.09 g/kg, beagle No 2): 3190 ng·h/mL
AUC(0-t) ([1]; male, po, 0.09 g/kg, single TRQCs 0.09 g/kg, beagle No 3): 4590 ng·h/mL
AUC(0-inf) ([2]; both sexes, iv, 0.5 mL/kg, TRQI 0.5 mL/kg for 7 days, Mean): 19100 ng·h/mL
AUC(0-t) ([2]; both sexes, iv, 0.5 mL/kg, TRQI 0.5 mL/kg for 7 days, Mean, read-out: AUC0–24 h): 16400 ng·h/mL
Cmax at 7 days [2, 7]: 5060 ng/mL
half-life at 7 days [2, 7]: 6.84 h
AUC(0-inf) ([2]; both sexes, po, 0.09 g/kg, TRQC 0.09 g/kg for 7 days, Mean): 35300 ng·h/mL
AUC(0-t) ([2]; both sexes, po, 0.09 g/kg, TRQC 0.09 g/kg for 7 days, Mean, read-out: AUC0–24 h): 28500 ng·h/mL
Cmax at 7 days [2, 8]: 3400 ng/mL
Tmax at 7 days [2, 8]: 5.69 h
half-life at 7 days [2, 8]: 12 h
AUC(0-inf) ([2]; female, iv, 0.5 mL/kg, TRQI 0.5 mL/kg for 7 days, beagle No. 4): 14900 ng·h/mL
AUC(0-t) ([2]; female, iv, 0.5 mL/kg, TRQI 0.5 mL/kg for 7 days, beagle No. 4, read-out: AUC0–24 h): 4740 ng·h/mL
AUC(0-inf) ([2]; female, iv, 0.5 mL/kg, TRQI 0.5 mL/kg for 7 days, beagle No. 5): 4220 ng·h/mL
AUC(0-t) ([2]; female, iv, 0.5 mL/kg, TRQI 0.5 mL/kg for 7 days, beagle No. 5, read-out: AUC0–24 h): 2560 ng·h/mL
AUC(0-inf) ([2]; female, iv, 0.5 mL/kg, TRQI 0.5 mL/kg for 7 days, beagle No. 6): 2810 ng·h/mL
AUC(0-t) ([2]; female, iv, 0.5 mL/kg, TRQI 0.5 mL/kg for 7 days, beagle No. 6, read-out: AUC0–24 h): 2670 ng·h/mL
AUC(0-inf) ([2]; female, po, 0.09 g/kg, TRQC 0.09 g/kg for 7 days, beagle No. 4): 112000 ng·h/mL
AUC(0-t) ([2]; female, po, 0.09 g/kg, TRQC 0.09 g/kg for 7 days, beagle No. 4, read-out: AUC0–24 h): 109000 ng·h/mL
AUC(0-inf) ([2]; female, po, 0.09 g/kg, TRQC 0.09 g/kg for 7 days, beagle No. 5): 20100 ng·h/mL
AUC(0-t) ([2]; female, po, 0.09 g/kg, TRQC 0.09 g/kg for 7 days, beagle No. 5, read-out: AUC0–24 h): 10500 ng·h/mL
AUC(0-inf) ([2]; female, po, 0.09 g/kg, TRQC 0.09 g/kg for 7 days, beagle No. 6): 45000 ng·h/mL
AUC(0-t) ([2]; female, po, 0.09 g/kg, TRQC 0.09 g/kg for 7 days, beagle No. 6, read-out: AUC0–24 h): 17600 ng·h/mL
AUC(0-inf) ([2]; male, iv, 0.5 mL/kg, TRQI 0.5 mL/kg for 7 days, beagle No. 1): 75900 ng·h/mL
AUC(0-t) ([2]; male, iv, 0.5 mL/kg, TRQI 0.5 mL/kg for 7 days, beagle No. 1, read-out: AUC0–24 h): 72400 ng·h/mL
AUC(0-inf) ([2]; male, iv, 0.5 mL/kg, TRQI 0.5 mL/kg for 7 days, beagle No. 2): 1860 ng·h/mL
AUC(0-t) ([2]; male, iv, 0.5 mL/kg, TRQI 0.5 mL/kg for 7 days, beagle No. 2, read-out: AUC0–24 h): 1720 ng·h/mL
AUC(0-inf) ([2]; male, iv, 0.5 mL/kg, TRQI 0.5 mL/kg for 7 days, beagle No. 3): 14600 ng·h/mL
AUC(0-t) ([2]; male, iv, 0.5 mL/kg, TRQI 0.5 mL/kg for 7 days, beagle No. 3, read-out: AUC0–24 h): 14500 ng·h/mL
AUC(0-inf) ([2]; male, po, 0.09 g/kg, TRQC 0.09 g/kg for 7 days, beagle No. 1): 2940 ng·h/mL
AUC(0-t) ([2]; male, po, 0.09 g/kg, TRQC 0.09 g/kg for 7 days, beagle No. 1, read-out: AUC0–24 h): 2760 ng·h/mL
AUC(0-inf) ([2]; male, po, 0.09 g/kg, TRQC 0.09 g/kg for 7 days, beagle No. 2): 24400 ng·h/mL
AUC(0-t) ([2]; male, po, 0.09 g/kg, TRQC 0.09 g/kg for 7 days, beagle No. 2, read-out: AUC0–24 h): 23900 ng·h/mL
AUC(0-inf) ([2]; male, po, 0.09 g/kg, TRQC 0.09 g/kg for 7 days, beagle No. 3): 7520 ng·h/mL
AUC(0-t) ([2]; male, po, 0.09 g/kg, TRQC 0.09 g/kg for 7 days, beagle No. 3, read-out: AUC0–24 h): 7190 ng·h/mL
Freeze-thaw stability (3 cycles) Mean ± S.D. concentration [3, 9]: 1048.41 ± 75.10 ng/mL
Long-term stability (30 days at – 80 °C) Mean ± S.D. concentration [3, 9]: 1081.75 ± 20.70 ng/mL
Short-term stability (6 h at room temperature) Mean ± S.D concentration [3, 9]: 1104.46 ± 16.75 ng/mL
Freeze-thaw stability (3 cycles) Mean ± S.D. concentration [3, 10]: 18.47 ± 1.66 ng/mL
Long-term stability (30 days at – 80 °C) Mean ± S.D. concentration [3, 10]: 18.77 ± 0.41 ng/mL
Short-term stability (6 h at room temperature) Mean ± S.D concentration [3, 10]: 19.38 ± 0.97 ng/mL
Freeze-thaw stability (3 cycles) Mean ± S.D. concentration [3, 11]: 87.08 ± 1.95 ng/mL
Long-term stability (30 days at – 80 °C) Mean ± S.D. concentration [3, 11]: 90.80 ± 1.57 ng/mL
Short-term stability (6 h at room temperature) Mean ± S.D concentration [3, 11]: 97.83 ± 0.62 ng/mL
Compound: C[C@H](CCC(=O)O)[C@H]1CC[C@H]2[C@@H]3[C@@H](O)C[C@@H]4C[C@H](O)CC[C@]4(C)[C@H]3CC[C@]12C [Ursodeoxycholic acid, ursodeoxycholic acid]
t1/2 ([4]; Hu's study): 0.933 h
t1/2 ([4]; another study): 0.233 h
